Reference: the METLIN SMRT retention time set (Domingo-Almenara et al. 2019)

Assay: gradient 5% acetonitrile 3 min, to 50% in 2 min, to 85% in 15 min, held 3 min, 100 µL/min
Settings: column: Zorbax Extend-C18 2.1 x 50 mm; eluents: water / acetonitrile, 0.1% formic acid
How it was run: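 Retention times come from adduct peaks that were picked computationally and then checked by hand. The standards, pure and pooled in mixtures of ~100 molecules, were run on a Zorbax Extend-C18 column (2.1 × 50 mm, 1.8 μm) at 100 μL/min with water and acetonitrile, each with 0.1% formic acid. Detection was by quadrupole time-of-flight mass spectrometry in positive and negative ionization mode, with a dead volume of 40 μL and a dwell volume of 900 μL.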

| SMILES | RP-LC retention time |
| --- | --- |
| Cc1nc(-c2ccc3c(c2)n(CC(=O)N2CCc4ccccc42)c(=O)n3C(C)C)no1 | 922 s |
| CC(C)(C)NC(=O)CCc1c(-c2ccc(Br)cc2)nc2ccccn12 | 681 s |
| O=S(=O)(Nc1cccc(Cl)c1)c1ccc2nncn2c1 | 700 s |
| CCCn1cnc2ccc(-c3noc(CNC(=O)c4ccccc4)n3)cc21 | 655 s |
| Cc1cc(C)cc(C(=O)N2CCCC(C(=O)NC3CCCCCC3)C2)c1 (stereo not drawn) | 955 s |
| CCN(Cc1ccccc1)c1ccc(-c2noc(CN3CCSCC3)n2)cn1 | 1030 s |
| N#Cc1ccsc1NC(=O)C1CCN(S(=O)(=O)c2ccc(Cl)s2)CC1 | 906 s |
| COCCN1C(=O)c2ccccc2C(C(=O)Nc2ccc3c(c2)OCO3)C12CCCC2 (stereo not drawn) | 816 s |
| Cc1ccc(NC(=O)c2nc(C)oc2C)c(C)c1 | 753 s |
| Cc1sc(C)c(C(=O)NC2(c3ccc(C(=O)O)cc3)CC2)c1Cc1ccc(C(F)(F)F)cc1 | 1070 s |
| O=C(NCc1ccccc1)C1CCN(C(=O)c2ncn3c2COC(c2ccccc2)C3)CC1 (stereo not drawn) | 760 s |
| COc1ccc(-c2csc(C)n2)cc1S(=O)(=O)N1CCN(c2cccc(Cl)c2)CC1 | 1170 s |
| Cc1cc(N2CCN(C)CC2)nc2ccc(NC(=S)NC3CCCc4ccccc43)cc12 (stereo not drawn) | 632 s |
| CCCCN1CCc2nc(Nc3cc(OC)ccc3OC)ncc2C1 | 655 s |
| O=C(NC1CCCCCC1)c1nnn(Cc2ccccc2)c1-n1cccc1 | 1120 s |
| COc1ccc(-c2noc(Cc3nnc(-c4cccc(Cl)c4)o3)n2)cc1 | 1070 s |
| CCCn1c(=O)c2cc(C(=O)NCc3ccccc3C)nn2c2ccccc21 | 1010 s |
| CCCC1O[C@@H]2C[C@H]3[C@@H]4CCC5=CC(=O)C=C[C@]5(C)[C@H]4[C@@H](O)C[C@]3(C)[C@]2(C(=O)CO)O1 (stereo partly drawn) | 1000 s |
| COc1cccc(S(=O)(=O)N2CCCN(S(=O)(=O)c3ccccc3)CCC(=O)NCC2)c1 | 805 s |
| CCCNc1cc(N2CCC(CCC(=O)N(CC)CC)CC2)ncn1 | 538 s |
| CN(C)CCNC(=O)CN1C(=O)C2CCCCN2c2ccc(S(=O)(=O)N3CCCC3)cc21 (stereo not drawn) | 775 s |
| O=C(NCCc1c[nH]c2ccc(Cl)cc12)c1cc2n(n1)CCCN(Cc1ccc(F)cc1)C2=O | 927 s |

| SMILES | RP-LC retention time |
| --- | --- |
| CCOCCCNC(=O)C1CCCN(c2nc3ccc(Br)cc3[nH]2)C1 (stereo not drawn) | 625 s |
| COc1cc(NC(=O)Cn2c(C)nc3c(sc4nc(-c5ccccc5)ccc43)c2=O)cc(OC)c1 | 1060 s |
| COc1ccccc1C(=O)N1C[C@H](c2nc(-c3ccccc3)no2)[C@@H](C)C1 | 820 s |
| COc1ccc(Cl)cc1N1CC(c2nc(-c3ccncc3)no2)CC1=O (stereo not drawn) | 752 s |
| CC(=O)Nc1ccc(NC(=O)CN2C(=O)C3CCCCN3C(=O)c3ccccc32)cc1 (stereo not drawn) | 651 s |
| CCOC(=O)c1ccc(NC(=O)CCc2ccc3nc(CC)[nH]c3c2)cc1 | 646 s |
| CCc1nc2cc(-c3noc(-c4ccc(C)cc4)n3)ccc2o1 | 1270 s |
| CCc1noc(CC2CCOC3(CCN(S(=O)(=O)c4ccc(Cl)cc4)CC3)C2)n1 (stereo not drawn) | 1070 s |
| CCOc1nc2ccccc2nc1N1CCCC(C(=O)N2CCN(c3ccccc3OC)CC2)C1 (stereo not drawn) | 1250 s |
| Cc1cc(C)cc(-c2nc(-c3ccc4c(c3)oc(=O)n4C(C)C)no2)c1 | 1140 s |
| O=C(Cn1nc(C(=O)N2CCCC2)c2ccccc21)NCc1cccnc1 | 580 s |
| CN1CCN(C(=O)c2noc3c2CC(C(C)(C)C)CC3)CC1 (stereo not drawn) | 582 s |
| COc1ccccc1-c1noc(CCc2nnc3ccc(N4CCN(Cc5ccccc5)CC4)nn23)n1 | 616 s |
| Cc1cc2nc(Nc3ncc4c(n3)CC(c3ccccc3)CC4=O)nc(C)c2cc1C (stereo not drawn) | 793 s |
| COc1ccc(Cc2nn3c(CSc4ccccc4)nnc3s2)cc1OC | 865 s |
| COc1ccc(N2CCN(c3nc(C(=O)NCCN(C)C)cs3)CC2)cc1 | 618 s |
| O=C(Cc1ccccc1Br)NC1CCCN(c2cc(-c3ccccc3)[nH]n2)C1 (stereo not drawn) | 811 s |
| Cc1ccc(Nc2c(-c3ccccc3O)nc3ccc(C)cn23)cc1 | 774 s |
| Cc1nc2ccccc2c(=O)n1-c1ccc(NC(=O)C2CCN(S(=O)(=O)N3CCCC3)CC2)cc1 | 778 s |
| CC1=NS(=O)(=O)N(C)C=C1C(=O)OCc1nc(-c2cccc(C)c2)no1 | 1020 s |
| Cc1ccccc1Cn1cc(-c2ccncc2)cc1C(=O)NCc1cccs1 | 741 s |
| Cc1nn(C)cc1C(C)NC(=O)C1CCN(c2cn[nH]c(=O)c2)CC1 (stereo not drawn) | 568 s |

| SMILES | RP-LC retention time |
| --- | --- |
| Cc1cccc(-c2noc(-c3nn(-c4ccccc4)ccc3=O)n2)c1 | 898 s |
| CCOCCCNC(=O)C1CCCN(c2cc(=O)n(C)c(=O)n2C)C1 (stereo not drawn) | 665 s |
| Cc1noc(C)c1S(=O)(=O)NCCn1c(C)cnc1-c1ccccc1 | 616 s |
| O=C(CCc1nc(-c2ccc(N3CCCC3)cc2)no1)N1CCC2(CC1)OCCO2 | 945 s |
| Cc1ccc(S(=O)(=O)N2CCCC2c2nc(-c3ccc(Cl)cc3)no2)cc1C (stereo not drawn) | 1300 s |
| COc1ccc(C(=O)N2CCCn3nc(-c4cccs4)cc3C2)c(OC)c1 | 798 s |
| CCOC(=O)c1nc(N2CCC(Cc3ccccc3)CC2)c2ccccc2n1 | 979 s |
| Cc1nnsc1C(=O)N1CCc2nc(NC(=O)C3CC3)sc2C1 | 630 s |
| O=C(c1cc(S(=O)(=O)N2CCCCCC2)ccc1Cl)N1CCN(c2ncccn2)CC1 | 926 s |
| CC(C)(C)c1noc(-c2ccnc(-n3cnc(C(=O)N4CCSCC4)c3)c2)n1 | 952 s |
| Cc1cccc(OCc2nc(-c3ccc(-c4csc(C5CC5)n4)cc3)no2)c1 | 784 s |
| Cc1ccc(N2CC(c3noc(C4CCC4)n3)CC2=O)cc1 (stereo not drawn) | 914 s |
| COc1ccc(CC(=O)N2CCc3nc(CNC(=O)C4CCC4)n(C)c3C2)cc1 | 589 s |
| O=C(c1ccc(F)c(Cl)c1)N1CCCC1c1nc(-c2ccccc2)no1 (stereo not drawn) | 1040 s |
| COc1ccccc1-c1nc2cnccn2c1NCCC(=O)Nc1ccc2c(c1)OCCO2 | 672 s |
| CCc1nccn1Cc1nc(-c2ccccc2Cl)no1 | 640 s |
| O=C(NCc1ccc(-c2noc(-c3cc(F)ccc3F)n2)s1)C1CC1 | 932 s |
| O=C(Nc1cccc(-c2ccc(N3CCOCC3)nn2)c1)Nc1cccc(Cl)c1F | 770 s |
| O=C(Nc1cccc(Cl)c1)C1CCN(S(=O)(=O)c2cc(C(=O)N3CCOCC3)cs2)CC1 | 850 s |
| CC(C)(C)c1ccc(C(=O)N2CCC3(CC2)N=C(c2ccccc2)NO3)cc1 | 991 s |
| Cc1ccsc1CN1CCc2nc(N3CCN(c4ccccc4F)CC3)ncc2C1 | 780 s |
| CC(C)NC(=O)c1ccc(OCC2CCCN2C(=O)Cc2cccs2)cc1 (stereo not drawn) | 807 s |

| SMILES | RP-LC retention time |
| --- | --- |
| COC(=O)c1cccc(NC(=O)c2sc3ncccc3c2-n2cccc2)c1 | 1040 s |
| Cc1noc(C)c1S(=O)(=O)NCC(c1cccnc1)c1cn(C)c2ccccc12 (stereo not drawn) | 700 s |
| N#Cc1ccc(C(=O)N2CCN3CCS(=O)(=O)N(C4CC4)C(=O)C3C2)cc1 (stereo not drawn) | 955 s |
| COc1ccccc1N1CCN(CCN(C(=O)c2ccc(F)cc2)c2ccccn2)CC1 | 792 s |
| O=C(CN1CCN(Cc2ccc(F)cc2)C1=O)NCCCn1cccn1 | 672 s |
| CC1=C(c2ccc(C)c(C)c2)S(=O)(=O)N=C1N1CCC(C(=O)NC(C)Cc2ccco2)CC1 (stereo not drawn) | 855 s |
| CCOC(=O)c1c(C)[nH]c(C(=O)N2CCCC(C(=O)NC3CCCCC3)C2)c1C (stereo not drawn) | 838 s |
| Cc1cccc(Sc2nccnc2N2CCC(C(=O)NC3CC3)CC2)c1 | 886 s |
| Cc1ccc(S(=O)(=O)N2CCC(c3nc(-c4cccc(-c5ccn[nH]5)c4)no3)CC2)cc1 | 971 s |
| Cn1cc(CN2CCC(C(=O)NCCN3CCOCC3)CC2)c2cc(Cl)ccc21 | 568 s |
| Cc1ccc([N+](=O)[O-])cc1S(=O)(=O)Nc1ccc(-c2cn3ccccc3n2)cc1 | 664 s |
| COC(=O)N1CCN(CCNC(=O)Cc2ccc(SC(C)C)cc2)CC1 | 584 s |
| CCn1c(CCNC(=O)c2ccc3c(c2)OCO3)nc2cccnc21 | 599 s |
| O=C(c1ccc(-c2cccs2)nc1)N1CCN(c2ccccc2)CC1 | 935 s |
| Cc1ccc(C)c(Sc2ccc(N3CCC(C(=O)NCC(C)c4ccccc4)CC3)nn2)c1 (stereo not drawn) | 938 s |
| O=C(Nc1cccnc1)N1CCC(Cc2cccc(Oc3ccc(C(F)(F)F)cn3)c2)CC1 | 866 s |
| C=C1C(=O)C23CC[C@@H]4C(C)(C(=O)OC)CCCC4(C)[C@@H]2CCC1(O)C3 (stereo partly drawn) | 902 s |
| CCCNC(=O)c1cc(-c2ccncc2)cn1Cc1ccccc1C | 690 s |
| CSc1ccc(NC(=O)Nc2cc(C)ccn2)cc1 | 782 s |
| Cc1cc(NC(=O)Cn2ccn3nc(-c4ccccc4)c(CO)c3c2=O)n[nH]1 | 644 s |
| CC1CCN(C(=O)Cc2nnc(-c3ccccc3)o2)CC1 | 770 s |
| COc1ccc(C(=O)N2CCCN(c3nnc4ccc(Cl)cn34)CC2)cn1 | 579 s |
